Measured values as given in patent US12534707B2, “Method for generating cardiac tissue mimetics” (GENOME BIOLOGICS UG, priority 2019, dated 2026).
Entries after “also recorded” stand apart in the source; their conditions may differ.

What was measured:
[1] = system: cardiac tissue mimetics (CTMs); test: Lactate dehydrogenase assay and toxicity assay (phospho-Histone H2A.X) of CTMs; type: cell-based, rat, human
Experimental: Media of CTMs were replaced completely with fresh medium 24 h before performing the assays. After 24 h, supernatants were collected and in maximum 50 μL of each supernatant was used for every measurement with the Lactate Dehydrogenase Activity Kit (Sigma; MAK066). To determine enzyme activity, the absorbance at 450 nm (A450) was measured with the CLARIOstar plate reader (BMG Labtech). LDH activity were calculated following the manufacturer's instruction. CTMs that incubated with 0.2% H2O2 in medium for 30 minutes at 37° C. served as positive control.

[2] = system: cardiac tissue mimetics (CTMs); test: CTM size measurement; details: 200 μM PE, 10 days, vs untreated control; FIG. 4
HUVEC spheroids = test: Spheroid-based angiogenic sprouting assay; type: cell-based, human
Experimental: After 72 hours, cell culture supernatants were centrifuged (500×g, 5 minutes) to deplete dead cells and stored at −80° C.
Endothelial cell sprouting was studied by in vitro spheroid-based angiogenesis assays. In brief, HUVECs were trypsinized and transferred into a mixture of fully supplemented EBM™ and methylcellulose (80%:20%). […] After 24 hours, spheroids were collected, pelleted (200×g, 3 minuted), resuspended in methylcellulose supplemented with FCS (80%:20%) and embedded in a collagen Type-I gel (Corning; 354236). HUVEC spheroids were then either cultured with fully supplemented EBM (+/−VEGF (50 ng/mL; BioLegend; 583702) or +/−PE (200 μM)), maintenance medium or conditioned cell culture medium.

[3] = system: cardiac tissue mimetics (CTMs); test: Seahorse assay (OCR, ECAR) of CTMs; type: cell-based, rat, human; details: PE-treated vs control CTMs
Experimental: The Agilent Seahorse XFe96 spheroid microplate was coated with Poly-D Lysine 100 μg/mL following the manual instruction. 1×KHB medium (111 mM NaCl, 4.7 mM KCl, 2 mM MgSO4, 1.2 mM Na2HPO4, 2.5 mM D-Glucose, 0.5 mM carnitine) supplemented with 6 mM D-Glucose was prepared prior the experiment. CTMs were washed twice with KHB medium and every single CTM was then transferred directly into each well of XFe96 spheroid microplate containing 175 μL of KHB medium. CTMs were centered into the micro-chamber and incubated at 37° C. in non-CO2 incubator for 1 hour. The Seahorse XF Cell Mito Stress Test was performed using sequential injection of Oligomycin (2.5 μM, Sigma, O4876), FCCP (2.0 μM, Sigma, C2920) and Antimycin A (0.5 μM, Sigma, A8674) following a 3-min-mixing and 3-min-measuring cycles for up to 2 hours. Oxygen consumption rate (OCR) and Extracellular acidification rate (ECAR) were measured and calculated using Seahorse XFe96 Analyzers (Agilent Technologies).

[4] = system: cardiac tissue mimetics (CTMs); test: mRNA expression in CTMs (qPCR of titin isoforms, bulk RNA sequencing); type: cell-based, rat, human
Experimental: CTMs, heart tissues of neonatal pups and adult rats were collected into Lysing Matrix D tubes (MP Biomedical; 6913-500) and 700 μL of TriFast (VWR; 3010-100ML) was added. Cells and tissues were homogenized 3 times for 20 s following by 5 min. pause on ice. Total RNA was purified with the Direct-zol™ RNA MicroPrep kit (Zymo Research; R2060). The RNA concentration was determined by measuring absorption at 260 nm and 280 nm with the NanoDrop® ND 2000-spectrophotometer (Peq Lab).
cDNA was synthesized from 500 ng of total RNA with EcoDry Premix RNA to cDNA (Random Hexamers) (Clontech; 639546). qPCR was performed using 10 μL of iTaq™ Universal SYBR® Green Supermix (Bio-Rad; 172-5124), 1 μL of 10 μmol/L forward and reverse primer each, 1 μL of cDNA template and 7 μL of H2O in a Bio-Rad CFX96 Connect Real-Time PCR system. Primers using to quantify mRNA expression were ordered from Metabion (Table 2).
Bulk RNA sequencing was performed as previously described (J. U. G. Wagner, E. Chavakis, E. M. Rogg, M. Muhly-Reinholz, S. F. Glaser, S. Gunther, D. John, F. Bonini, A. M. Zeiher, L. Schaefer, M. J. Hannocks, R. A. Boon, S. Dimmeler, 2018, Arterioscler Thromb Vasc Biol 38(5), 1170-1177). […] Sequencing was performed on the NextSeq500 instrument (IIlumina) using v2 chemistry, resulting in minimum of 30M reads per library with 1×75 bp single end setup. […]

[5] = system: cardiac tissue mimetics (CTMs); test: Contractility measurement of CTMs (spontaneous beats per minute; pacing at 1 Hz and 15 V); details: PE-treated vs control, electric pacing 1 Hz; FIG. 8
[6] = system: cardiac tissue mimetics (CTMs); test: CTM vascularisation (GFP-HUVEC sprout length, thickness, branch points); type: cell-based, rat, human; details: 200 μM PE, 10 days, vs control; for filopodia formation in CTMs: FIG. 13; for vascularization / angiogenesis of CTMs: FIGS. 13, 14, 36
[7] = system: CTMs obtained from human iPSC; test: Stress response of CTMs obtained from human iPSC (contraction frequency, volume, lactate); type: cell-based; details: 200 μM PE
Experimental: After 10 days of culture, CTMs were treated with 200 μM Phenylephrine (PE), and in parallel, were cultured under conditions of hypoxia (3% O2). Videos of contracting CTMs were recorded for 1 min and analysed to observe the response. The contraction frequency was measured at day 3 (to obtain a short-term response) and day 20 (to obtain a long-term response). […] Human iPS cardiomyocytes (hiPS-CMs) were ordered from Fujifilm CDI and thawed before the culture. Human cardiac fibroblasts (hCFB) were cultured and trypsinized. The two cell types were mixed at a CM:FB ratio of 5:1 in plating medium (PM provided by CDI). The mixed cells were left to form cardiac tissue mimetics in 30 μL hanging drops containing PM with a density of 5000 hiPS-CMs and 1000 hCFB and incubated at 37° for four days. The cardiac tissue mimetics were then collected, and every single cardiac tissue mimetic was again distributed into each well of ultra-low-attachment (ULA) plates with maintenance medium (MM; provided by CDI). MM was changed every two days. After seven days, human IPS endothelial cells (hiPS-ECs) were thawed and added into each well at a CM:EC ratio of 2:1. A mixed medium of MM and EC growth medium (EGM; provided by CDI) at a 1:1 ratio was used and half of the medium was changed every second day. After 10 days cardiac tissue mimetics were harvested for further assays.

[8] = system: cardiac tissue mimetics (CTMs); test: Fluorescence immunohistochemistry of CTMs (α-actinin, WGA, Atp5a1); type: cell-based, rat, human
Experimental: Cryosections of CTMs were stained with DAPI, anti-α-Actinin and Alexa Flour conjugate of Wheat-Germ-Agglutinin. Area of 100 cardiomyocytes per condition were quantified using ImageJ. In case of whole mount stainings, CTMs were permeabilized with 0.2% Triton® X-100 in PBS for 1 hour at room temperature followed by blocking with 5% horse serum (Sigma-Aldrich) in PBS for 30 minutes at room temperature. Primary antibodies (see Table 1) were diluted 1:200 in 5% horse serum and incubated over night at 4° C. Before using the secondary antibody (see table below), CTMs were washed three times with PBS containing 1% Tween 20 and 0.002% Triton® X-100 (referred as PBT from here after) for 20 minutes at room temperature. Secondary antibodies (1:500) and DAPI (1:1000; Carl-Roth GmbH & Co. KG) were diluted in 5% horse serum together and incubated for 4 hours at room temperature in the dark. […] Cryo-sections were prepared by embedding fixed spheroids in O.C.T medium (Tissue-Tek), snap-freezing them in liquid nitrogen and cutting them in 10 μm thick sections. Sections were permeabilized and blocked for one hour in 0.1% Triton® X100 (in PBS+BSA). Primary antibody incubated with the sections diluted 1:50-1:100 in 1 mM MgCl2, 1 mM CaCl2, 0.1 mM MnCl2, 1% Triton® X-100 or 0.2% saponin over night at 4° C. […]

CNC[C@H](O)c1cccc(O)c1 [PE, phenylephrine]
extracellular lactate dehydrogenase (LDH) as marker of necrosis ([1]; mature CTMs with PE vs untreated control, FIG. 35): failed to reveal differences
cytotoxicity in CTMs (p-γ-H2AX staining, LDH activity) ([1]; phenylephrine-treated mature CTMs, FIGS. 34 and 35): no cytotoxicity
CTM growth (size as volume) [2]: significantly increased
EC spheroid growth / vascular network growth and branching (cumulative sprout length), direct treatment (HUVEC spheroids; HUVEC spheroids, 200 μM PE or 50 ng/mL VEGF, 24 hours, FIG. 15): did not impact
EC growth and sprouting with conditioned medium of PE-stimulated CM (HUVEC spheroids; neonatal rat CM treated with PE 72 hours, supernatant on HUVEC spheroids 24 hours, FIG. 17): significantly increase
EC sprouting with conditioned medium of PE-stimulated FB (HUVEC spheroids; neonatal rat FB treated with PE 72 hours, supernatant on HUVEC spheroids 24 hours, FIG. 38): no effect
glycolysis (basal extracellular acidification rate) ([3]; FIG. 11): reduction
oxidation metabolism (oxygen consumption rate) ([3]; FIGS. 9-10): increased
KEGG gene sets for adrenergic signaling, metabolism and contractility ([4]; PE stimulation vs untreated CTMs, FIG. 33): enrichment and elevated expression
titin isoform mRNA expression (N2B, N2BA2) ([4]; PE-treated vs control CTMs, FIG. 6): shift towards adult-type titin isoform expression
contractile amplitude in paced CTMs [5]: significant increase; also recorded: augment
filopodia formation in CTMs [6]: more filopodia
filopodia formation in CTMs ([6]; listed as phenylephrine): induces
number of branch points in CTMs ([6]; FIG. 14): increased
tube length (accumulated sprout length) in CTMs ([6]; FIG. 14): increased
tube thickness in CTMs ([6]; FIG. 14): increased
vascularization / angiogenesis of CTMs [6]: significantly augmented
vascularization / angiogenesis of CTMs ([6]; listed as phenylephrine): induces
contraction frequency ([7]; day 3, FIG. 41): significantly increased
volume of the CTMs ([7]; day 3, FIG. 42): no significant change
lactate concentration in culture media ([7]; day 3, FIG. 43): significant increase
contraction frequency ([7]; day 20, FIG. 41): significantly increased
lactate concentration in culture media ([7]; day 20, FIG. 43): significant increase
volume of the CTMs ([7]; day 20, vs control, FIG. 42): significant increase
cardiomyocyte maturation and hypertrophy (sarcomeric α-actinin staining, sarcomere organization and density) ([8]; 200 μM PE, 10 days, vs control, FIGS. 5-7): significantly increased
mitochondrial function and mitochondrial density ([8]; PE-treated vs control CTMs, Atp5a1 staining, FIGS. 9-12): increased
